According to US9914874B2, “Composite nanoparticles including a malonic acid derivative” (3M INNOVATIVE PROPERTIES COMPANY, priority 2013, dated 2018):

Assay: Solubility of the malonic acid derivative in toluene
Assay type: physicochemical
Conditions: based on total weight of the solution

In the case of `CC(CC=C(C(=O)O)C(=O)O)CC(C)(C)C` (stereo not shown) [Example 3, 2-(3,5,5-Trimethylhexylidene)propanedioic Acid], the solubility in toluene is reported as “greater than 1 weight percent”.
